# Active and inactive are the calls of the source. The calls are words filed in the database; no cut-off is given here.
# Tested on: Mus musculus
# Assay: Anti-inflammatory activity in Mus musculus Swiss albino (mouse) assessed as inhibition of carrageenan-induced edema at 100 mg/kg, po pretreated 60 min before carrageenan-challenge measured after 270 min
# Assay type: functional
# Conditions: not given
SMILES,inhibition in vivo at 100 mg/kg [%],inhibition
O=C(Cn1c(=O)sc2cc(C(=O)c3ccccc3Cl)ccc21)Nc1ccccc1,10.9,–
Cc1cccc(NC(=O)Cn2c(=O)sc3cc(C(=O)c4ccccc4F)ccc32)n1,1.2,–
O=C(Cn1c(=O)sc2cc(C(=O)c3ccccc3)ccc21)Nc1ccccc1,12.5,–
Cc1cccc(NC(=O)Cn2c(=O)sc3cc(C(=O)c4ccccc4Cl)ccc32)n1,–,inactive
O=C(Cn1c(=O)sc2cc(C(=O)c3ccccc3)ccc21)Nc1cccc(Cl)c1,10.8,–
Cc1ccnc(NC(=O)Cn2c(=O)sc3cc(C(=O)c4ccccc4)ccc32)c1,–,inactive
O=C(Cn1c(=O)sc2cc(C(=O)c3ccccc3Cl)ccc21)Nc1cccc(Cl)c1,30.4,–
O=C(Cn1c(=O)sc2cc(C(=O)c3ccccc3F)ccc21)Nc1cccc(Cl)c1,25.5,–

# Tested on: Mus musculus
# Assay: Anti-inflammatory activity in Mus musculus Swiss albino (mouse) assessed as inhibition of carrageenan-induced edema at 100 mg/kg, po pretreated 60 min before carrageenan-challenge measured after 180 min
# Assay type: functional
# Conditions: not given
SMILES,inhibition in vivo at 100 mg/kg [%],inhibition
O=C(Cn1c(=O)sc2cc(C(=O)c3ccccc3Cl)ccc21)Nc1ccccc1,11,–
Cc1cccc(NC(=O)Cn2c(=O)sc3cc(C(=O)c4ccccc4F)ccc32)n1,3.7,–
O=C(Cn1c(=O)sc2cc(C(=O)c3ccccc3)ccc21)Nc1ccccc1,3.5,–
Cc1cccc(NC(=O)Cn2c(=O)sc3cc(C(=O)c4ccccc4Cl)ccc32)n1,–,inactive
O=C(Cn1c(=O)sc2cc(C(=O)c3ccccc3)ccc21)Nc1cccc(Cl)c1,10.7,–
Cc1ccnc(NC(=O)Cn2c(=O)sc3cc(C(=O)c4ccccc4)ccc32)c1,–,inactive
O=C(Cn1c(=O)sc2cc(C(=O)c3ccccc3Cl)ccc21)Nc1cccc(Cl)c1,22,–
O=C(Cn1c(=O)sc2cc(C(=O)c3ccccc3F)ccc21)Nc1cccc(Cl)c1,18.4,–

# Biological target: Prostaglandin G/H synthase 1 (Homo sapiens) (UniProt P23219);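 further: human whole blood assay, COX-1 activity read out as TXB2 level by enzyme immunoassay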
# Conditions: Blood, at 10 µM
# Description: Inhibition of cyclooxygenase-1 in Homo sapiens (human) whole blood assessed as TXB2 level at 10 uM by EIA
# Chain of Prostaglandin G/H synthase 1 (Homo sapiens) (P23219 whole entry): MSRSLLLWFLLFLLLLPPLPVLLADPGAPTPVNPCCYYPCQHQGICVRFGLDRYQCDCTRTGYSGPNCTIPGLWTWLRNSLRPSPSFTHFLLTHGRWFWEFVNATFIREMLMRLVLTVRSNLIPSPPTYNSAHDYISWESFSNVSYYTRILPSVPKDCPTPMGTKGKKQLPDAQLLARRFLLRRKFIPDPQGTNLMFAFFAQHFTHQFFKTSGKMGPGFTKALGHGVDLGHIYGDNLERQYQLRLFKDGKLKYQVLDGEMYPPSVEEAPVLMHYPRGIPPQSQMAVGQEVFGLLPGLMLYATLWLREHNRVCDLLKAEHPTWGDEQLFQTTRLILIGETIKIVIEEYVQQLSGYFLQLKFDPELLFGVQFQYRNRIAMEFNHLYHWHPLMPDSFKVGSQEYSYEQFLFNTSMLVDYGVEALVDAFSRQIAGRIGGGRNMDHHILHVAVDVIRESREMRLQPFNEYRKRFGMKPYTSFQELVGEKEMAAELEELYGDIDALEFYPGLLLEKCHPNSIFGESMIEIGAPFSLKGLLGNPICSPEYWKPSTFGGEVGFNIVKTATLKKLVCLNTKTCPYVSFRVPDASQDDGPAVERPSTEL
row,SMILES,inhibition
1,O=C(Cn1c(=O)sc2cc(C(=O)c3ccccc3Cl)ccc21)Nc1ccccc1,3.42%
2,Cc1cccc(NC(=O)Cn2c(=O)sc3cc(C(=O)c4ccccc4F)ccc32)n1,28%
3,O=C(Cn1c(=O)sc2cc(C(=O)c3ccccc3)ccc21)Nc1ccccc1,40.4%
4,Cc1cccc(NC(=O)Cn2c(=O)sc3cc(C(=O)c4ccccc4Cl)ccc32)n1,9.84%
5,O=C(Cn1c(=O)sc2cc(C(=O)c3ccccc3)ccc21)Nc1cccc(Cl)c1,inactive
6,Cc1ccnc(NC(=O)Cn2c(=O)sc3cc(C(=O)c4ccccc4)ccc32)c1,50%
7,O=C(Cn1c(=O)sc2cc(C(=O)c3ccccc3Cl)ccc21)Nc1cccc(Cl)c1,7.27%
8,O=C(Cn1c(=O)sc2cc(C(=O)c3ccccc3F)ccc21)Nc1cccc(Cl)c1,20.5%

# Biological target: T1, Polyunsaturated fatty acid 5-lipoxygenase (Homo sapiens) (UniProt P09917)
# T1 sequence (whole entry): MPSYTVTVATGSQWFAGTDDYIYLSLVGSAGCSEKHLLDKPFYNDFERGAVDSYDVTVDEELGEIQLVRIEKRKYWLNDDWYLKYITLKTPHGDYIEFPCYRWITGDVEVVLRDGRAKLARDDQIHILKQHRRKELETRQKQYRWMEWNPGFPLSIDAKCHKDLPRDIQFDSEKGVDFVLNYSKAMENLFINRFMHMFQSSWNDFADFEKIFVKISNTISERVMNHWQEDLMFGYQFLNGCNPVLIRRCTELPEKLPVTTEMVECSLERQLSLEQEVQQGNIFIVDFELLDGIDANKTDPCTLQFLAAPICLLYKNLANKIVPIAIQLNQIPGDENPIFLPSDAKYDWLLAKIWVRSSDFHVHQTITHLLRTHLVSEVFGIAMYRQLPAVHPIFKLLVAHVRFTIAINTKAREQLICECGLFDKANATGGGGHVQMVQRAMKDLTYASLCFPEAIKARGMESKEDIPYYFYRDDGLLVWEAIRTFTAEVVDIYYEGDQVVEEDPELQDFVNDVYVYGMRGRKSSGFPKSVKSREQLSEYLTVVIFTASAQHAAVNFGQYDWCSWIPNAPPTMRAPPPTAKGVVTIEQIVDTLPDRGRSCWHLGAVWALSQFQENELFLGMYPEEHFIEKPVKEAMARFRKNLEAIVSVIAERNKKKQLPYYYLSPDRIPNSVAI
# Assay: Inhibition of 5-LOX (unknown origin) at 10 uM
# Conditions: not given
row,SMILES,inhibition [%]
1,O=C(Cn1c(=O)sc2cc(C(=O)c3ccccc3Cl)ccc21)Nc1ccccc1,16
2,Cc1cccc(NC(=O)Cn2c(=O)sc3cc(C(=O)c4ccccc4F)ccc32)n1,20
3,O=C(Cn1c(=O)sc2cc(C(=O)c3ccccc3)ccc21)Nc1ccccc1,6
4,Cc1cccc(NC(=O)Cn2c(=O)sc3cc(C(=O)c4ccccc4Cl)ccc32)n1,28
5,O=C(Cn1c(=O)sc2cc(C(=O)c3ccccc3)ccc21)Nc1cccc(Cl)c1,46
6,Cc1ccnc(NC(=O)Cn2c(=O)sc3cc(C(=O)c4ccccc4)ccc32)c1,11
7,O=C(Cn1c(=O)sc2cc(C(=O)c3ccccc3Cl)ccc21)Nc1cccc(Cl)c1,35
8,O=C(Cn1c(=O)sc2cc(C(=O)c3ccccc3F)ccc21)Nc1cccc(Cl)c1,31

# Tested on: Mus musculus
# Assay: Anti-inflammatory activity in Mus musculus Swiss albino (mouse) assessed as inhibition of carrageenan-induced edema at 100 mg/kg, po pretreated 60 min before carrageenan-challenge measured after 360 min
# Assay type: functional
# Conditions: not given
SMILES,inhibition in vivo at 100 mg/kg [%],inhibition
O=C(Cn1c(=O)sc2cc(C(=O)c3ccccc3Cl)ccc21)Nc1ccccc1,10.5,–
Cc1cccc(NC(=O)Cn2c(=O)sc3cc(C(=O)c4ccccc4F)ccc32)n1,2.3,–
Cc1cccc(NC(=O)Cn2c(=O)sc3cc(C(=O)c4ccccc4Cl)ccc32)n1,–,inactive
O=C(Cn1c(=O)sc2cc(C(=O)c3ccccc3)ccc21)Nc1cccc(Cl)c1,8,–
Cc1ccnc(NC(=O)Cn2c(=O)sc3cc(C(=O)c4ccccc4)ccc32)c1,–,inactive
O=C(Cn1c(=O)sc2cc(C(=O)c3ccccc3Cl)ccc21)Nc1cccc(Cl)c1,31.3,–
O=C(Cn1c(=O)sc2cc(C(=O)c3ccccc3F)ccc21)Nc1cccc(Cl)c1,28.2,–

# Tested on: Mus musculus
# Assay: Anti-inflammatory activity in Mus musculus Swiss albino (mouse) assessed as inhibition of carrageenan-induced edema at 100 mg/kg, po pretreated 60 min before carrageenan-challenge measured after 90 min
# Assay type: functional
# Conditions: not given
SMILES,inhibition in vivo at 100 mg/kg [%],inhibition
O=C(Cn1c(=O)sc2cc(C(=O)c3ccccc3Cl)ccc21)Nc1ccccc1,5.3,–
Cc1cccc(NC(=O)Cn2c(=O)sc3cc(C(=O)c4ccccc4F)ccc32)n1,1.7,–
O=C(Cn1c(=O)sc2cc(C(=O)c3ccccc3)ccc21)Nc1ccccc1,3.6,–
Cc1cccc(NC(=O)Cn2c(=O)sc3cc(C(=O)c4ccccc4Cl)ccc32)n1,–,inactive
O=C(Cn1c(=O)sc2cc(C(=O)c3ccccc3)ccc21)Nc1cccc(Cl)c1,5.6,–
Cc1ccnc(NC(=O)Cn2c(=O)sc3cc(C(=O)c4ccccc4)ccc32)c1,–,inactive
O=C(Cn1c(=O)sc2cc(C(=O)c3ccccc3Cl)ccc21)Nc1cccc(Cl)c1,23.9,–
O=C(Cn1c(=O)sc2cc(C(=O)c3ccccc3F)ccc21)Nc1cccc(Cl)c1,15.8,–

# Tested on: Mus musculus
# Assay: Analgesic activity in Mus musculus Swiss albino (mouse) assessed as inhibition of p-benzoquinone-induced writhing at 100 mg/kg, po pretreated 60 min before p-benzoquinone challenge
# Assay type: functional
# Conditions: not given
SMILES,inhibition in vivo at 100 mg/kg [%],inhibition
O=C(Cn1c(=O)sc2cc(C(=O)c3ccccc3Cl)ccc21)Nc1ccccc1,20.6,–
Cc1cccc(NC(=O)Cn2c(=O)sc3cc(C(=O)c4ccccc4F)ccc32)n1,22.2,–
O=C(Cn1c(=O)sc2cc(C(=O)c3ccccc3)ccc21)Nc1ccccc1,17.3,–
Cc1cccc(NC(=O)Cn2c(=O)sc3cc(C(=O)c4ccccc4Cl)ccc32)n1,15.9,–
O=C(Cn1c(=O)sc2cc(C(=O)c3ccccc3)ccc21)Nc1cccc(Cl)c1,23.1,–
Cc1ccnc(NC(=O)Cn2c(=O)sc3cc(C(=O)c4ccccc4)ccc32)c1,–,inactive
O=C(Cn1c(=O)sc2cc(C(=O)c3ccccc3Cl)ccc21)Nc1cccc(Cl)c1,41.8,–
O=C(Cn1c(=O)sc2cc(C(=O)c3ccccc3F)ccc21)Nc1cccc(Cl)c1,49.9,–

# Tested on: Mus musculus
# Assay: Gastrointestinal toxicity in Mus musculus Swiss albino (mouse) assessed as ratio of ulcer at 100 mg/kg, po measured after 2 hr
# Assay type: organism-based
# Design: dose 100 mg/kg, route oral
# Conditions: in vivo
row,SMILES,Activity
1,O=C(Cn1c(=O)sc2cc(C(=O)c3ccccc3Cl)ccc21)Nc1ccccc1,Non-toxic
2,Cc1cccc(NC(=O)Cn2c(=O)sc3cc(C(=O)c4ccccc4F)ccc32)n1,Non-toxic
3,O=C(Cn1c(=O)sc2cc(C(=O)c3ccccc3)ccc21)Nc1ccccc1,Non-toxic
4,Cc1cccc(NC(=O)Cn2c(=O)sc3cc(C(=O)c4ccccc4Cl)ccc32)n1,Non-toxic
5,O=C(Cn1c(=O)sc2cc(C(=O)c3ccccc3)ccc21)Nc1cccc(Cl)c1,Non-toxic
6,Cc1ccnc(NC(=O)Cn2c(=O)sc3cc(C(=O)c4ccccc4)ccc32)c1,Toxic
7,O=C(Cn1c(=O)sc2cc(C(=O)c3ccccc3Cl)ccc21)Nc1cccc(Cl)c1,Non-toxic
8,O=C(Cn1c(=O)sc2cc(C(=O)c3ccccc3F)ccc21)Nc1cccc(Cl)c1,Non-toxic

# Biological target: T2, Prostaglandin G/H synthase 2 (Homo sapiens) (UniProt P35354);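 further: human whole blood COX-2 activity read out as PGE2 level measured by enzyme immunoassay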
# T2 sequence (whole entry): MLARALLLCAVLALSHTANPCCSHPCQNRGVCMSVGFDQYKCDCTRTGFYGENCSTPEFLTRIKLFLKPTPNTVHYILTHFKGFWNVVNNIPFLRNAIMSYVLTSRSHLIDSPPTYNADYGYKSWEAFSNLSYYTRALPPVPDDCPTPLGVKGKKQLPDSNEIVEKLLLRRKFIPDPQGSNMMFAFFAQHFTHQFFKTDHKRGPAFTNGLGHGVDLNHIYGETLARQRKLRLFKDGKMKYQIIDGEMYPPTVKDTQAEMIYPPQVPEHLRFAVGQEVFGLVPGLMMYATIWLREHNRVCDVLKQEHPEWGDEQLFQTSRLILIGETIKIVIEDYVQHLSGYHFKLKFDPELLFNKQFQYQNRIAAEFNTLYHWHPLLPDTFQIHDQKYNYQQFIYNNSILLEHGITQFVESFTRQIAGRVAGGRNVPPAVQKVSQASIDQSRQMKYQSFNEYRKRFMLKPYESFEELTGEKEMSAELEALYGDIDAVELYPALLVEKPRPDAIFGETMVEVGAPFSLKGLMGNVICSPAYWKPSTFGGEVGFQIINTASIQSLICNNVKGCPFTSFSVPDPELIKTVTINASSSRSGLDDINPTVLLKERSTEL
# Conditions: Blood, at 10 µM
# Description: Inhibition of cyclooxygenase-2 in Homo sapiens (human) whole blood assessed as PGE2 level at 10 uM by EIA
row,SMILES,inhibition
1,O=C(Cn1c(=O)sc2cc(C(=O)c3ccccc3Cl)ccc21)Nc1ccccc1,inactive
2,Cc1cccc(NC(=O)Cn2c(=O)sc3cc(C(=O)c4ccccc4F)ccc32)n1,12.6%
3,O=C(Cn1c(=O)sc2cc(C(=O)c3ccccc3)ccc21)Nc1ccccc1,1.47%
4,Cc1cccc(NC(=O)Cn2c(=O)sc3cc(C(=O)c4ccccc4Cl)ccc32)n1,2.21%
5,O=C(Cn1c(=O)sc2cc(C(=O)c3ccccc3)ccc21)Nc1cccc(Cl)c1,inactive
6,Cc1ccnc(NC(=O)Cn2c(=O)sc3cc(C(=O)c4ccccc4)ccc32)c1,6.83%
7,O=C(Cn1c(=O)sc2cc(C(=O)c3ccccc3Cl)ccc21)Nc1cccc(Cl)c1,inactive
8,O=C(Cn1c(=O)sc2cc(C(=O)c3ccccc3F)ccc21)Nc1cccc(Cl)c1,19.3%
